Counter-ions that a name gives are not always drawn.
Biological target: T1, human AspH (His6-AspH315–758) (Homo sapiens, UniProt Q12797)
T1 construct: N-Terminally His6-tagged human AspH315–758 (His6-AspH315–758) was produced in Escherichia coli BL21 (DE3) cells; made in house; host or cells: Escherichia coli BL21 (DE3), pET-28a(+) vector
T1 sequence (Q12797 315-758): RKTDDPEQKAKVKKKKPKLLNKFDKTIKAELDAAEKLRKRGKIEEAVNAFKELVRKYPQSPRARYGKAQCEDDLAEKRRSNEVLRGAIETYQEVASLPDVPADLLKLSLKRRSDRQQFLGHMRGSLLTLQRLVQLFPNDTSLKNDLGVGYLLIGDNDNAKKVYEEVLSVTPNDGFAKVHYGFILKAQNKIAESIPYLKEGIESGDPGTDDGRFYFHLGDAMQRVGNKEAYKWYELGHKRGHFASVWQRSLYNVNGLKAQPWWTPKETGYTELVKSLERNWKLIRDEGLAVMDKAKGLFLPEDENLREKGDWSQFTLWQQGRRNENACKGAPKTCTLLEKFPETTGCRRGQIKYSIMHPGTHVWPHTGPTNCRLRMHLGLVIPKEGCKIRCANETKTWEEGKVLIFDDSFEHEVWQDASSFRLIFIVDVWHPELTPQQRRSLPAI
Experiment: SPE-MS AspH inhibition assay (hFX-CP101-119 substrate hydroxylation)
Assay type: biochemical
Settings: for Plate 1 (% conversion): 384-well Plate 1, substrate conversion; for Plate 1-duplicate (% conversion): substrate conversion

[1] = AspH-inhibitor screening, 384-well Plate 1
[2] = AspH-inhibitor screening, Plate 1-duplicate

| Compound | Plate 1 (% inhibition) [1] [%] | Plate 1 (% conversion) (AspH-inhibitor screening) [%] | Plate 1-duplicate (% inhibition) [2] [%] | Plate 1-duplicate (% conversion) [2] [%] | Plate 1 (% inhibition) (100 uM 2,4-PDCA controls, columns 23, 24, Plate 1) [%] | Plate 1-duplicate (% inhibition) (100 uM 2,4-PDCA controls, columns 23, 24, Plate 1-duplicate) [%] |
| --- | --- | --- | --- | --- | --- | --- |
| C=CC[C@@H]1/C=C(\C)C[C@H](C)C[C@H](OC)[C@H]2O[C@@](O)(C(=O)C(=O)N3CCCC[C@H]3C(=O)O[C@H](/C(C)=C/[C@@H]3CC[C@@H](O)[C@H](OC)C3)[C@H](C)[C@@H](O)CC1=O)[C@H](C)C[C@@H]2OC.O [FK 506_Tacrolimus] | -2.23 | 50.78 | -2.68 | 53.37 |  |  |
| Nc1ncn([C@@H]2O[C@H](CO)[C@@H](O)[C@H]2O)c(=O)n1 [Azacitidine] | 17.64 | 41.61 | 12.26 | 45.96 |  |  |
| C=CCn1c(=O)c2cnc(Nc3ccc(N4CCN(C)CC4)cc3)nc2n1-c1cccc(C(C)(C)O)n1 [MK1775] | 5.75 | 47.09 | 1.85 | 51.12 |  |  |
| CC(C)(C)c1cc(NC(=O)Nc2ccc(-c3cn4c(n3)sc3cc(OCCN5CCOCC5)ccc34)cc2)no1 [AC220_Quizartinib] | -19.26 | 58.64 | -18.68 | 61.31 |  |  |
| Cc1ccc(-c2cc(C(F)(F)F)nn2-c2ccc(S(N)(=O)=O)cc2)cc1 [Celecoxib] | -8.28 | 53.57 | -15.35 | 59.65 |  |  |
| Oc1ncnc2[nH]ncc12 [Allopurinol] | -0.61 | 50.03 | 4.67 | 49.73 |  |  |
| C=CCc1cccc(/C=N/NC(=O)CN2CCN(Cc3ccccc3)CC2)c1O [PAC-1] | 3.72 | 48.03 | -0.37 | 52.23 |  |  |
| C=CC(=O)Nc1cc(Nc2nccc(-c3cn(C)c4ccccc34)n2)c(OC)cc1N(C)CCN(C)C [Osimertinib] | 34.01 | 34.05 | 33.73 | 35.31 |  |  |
| C/C(=C\c1csc(C)n1)[C@@H]1C[C@@H]2O[C@]2(C)CCC[C@H](C)[C@H](O)[C@@H](C)C(=O)C(C)(C)[C@@H](O)CC(=O)O1 [Epothilone B (Patupilone)] | -5.33 | 52.21 | -7.34 | 55.68 |  |  |
| CS(=O)(=O)N1CCN(Cc2cc3nc(-c4cccc5[nH]ncc45)nc(N4CCOCC4)c3s2)CC1 [GDC-0941_Pictilisib] | 1.37 | 49.12 | 2.57 | 50.77 |  |  |
| CCC(C)(C)C(=O)O[C@H]1C[C@@H](C)C=C2C=C[C@H](C)[C@H](CC[C@@H]3C[C@@H](O)CC(=O)O3)[C@H]21 [Simvastatin] | -15.63 | 56.97 | -16.09 | 60.02 |  |  |
| CC(C)C[C@H](NC(=O)[C@H](Cc1ccccc1)NC(=O)c1cnccn1)B(O)O [Bortezomib] | 6.81 | 46.61 | 7.89 | 48.13 |  |  |
| C[C@@H]1C=C2C(=O)O[C@@H]3CC[C@H](C1)[C@]23O [Galiellalactone] | 15.61 | 42.54 | 8.63 | 47.76 |  |  |
| O=C(O)c1ccnc(C(=O)O)c1 [pyridine-2,4-dicarboxylic acid] |  |  |  |  | 101.14 | 99.94 |
| NCC(=O)CCC(=O)O [Aminolevulinic acid hydrochloride] | 20.47 | 40.30 | 25.89 | 39.20 |  |  |
| Cl.Cn1c(CCCC(=O)O)nc2cc(N(CCCl)CCCl)ccc21 [Bendamustine hydrochloride] | 2.89 | 48.41 | 4.93 | 49.60 |  |  |
| Cc1ccc(C(=O)Nc2ccc(CN3CCN(C)CC3)c(C(F)(F)F)c2)cc1C#Cc1cnc2cccnn12 [AP24534 (Ponatinib)] | -64.76 | 79.66 | -35.27 | 69.54 |  |  |
| CC(C)(C)c1nc(-c2cccc(NS(=O)(=O)c3c(F)cccc3F)c2F)c(-c2ccnc(N)n2)s1.CS(=O)(=O)O [Dabrafenib Mesylate] | 21.60 | 39.78 | 12.13 | 46.02 |  |  |
| CN(C)CCN1C(=O)c2cccc3cc(N)cc(c23)C1=O [Amonafide] | 4.40 | 47.72 | 3.28 | 50.42 |  |  |
| O=C(c1cc(Cc2n[nH]c(=O)c3ccccc23)ccc1F)N1CCN(C(=O)C2CC2)CC1 [Olaparib] | 15.27 | 42.70 | 14.14 | 45.03 |  |  |
| FC(F)c1nc2ccccc2n1-c1nc(N2CCOCC2)nc(N2CCOCC2)n1 [ZSTK474] | -1.18 | 50.29 | 1.69 | 51.20 |  |  |
| O=C1NC(=O)[C@@H](c2cn3c4c(cccc24)CCC3)[C@@H]1c1c[nH]c2ccccc12 [ARQ 197_Tivantinib] | -6.95 | 52.96 | -13.62 | 58.79 |  |  |
| CN[C@@H](C)C(=O)N[C@H]1CN(C(=O)CC(C)C)CC[C@H]2CC[C@@H](C(=O)NC(c3ccccc3)c3ccccc3)N2C1=O [AT-406] | 3.10 | 48.32 | -2.44 | 53.25 |  |  |
| Nc1nc2nc[nH]c2c(=S)[nH]1 [Thioguanine] | 7.28 | 46.39 | 8.14 | 48.00 |  |  |
| AZD4547 | -11.19 | 54.92 | -5.75 | 54.89 |  |  |
| CCN(CC)CCOc1ccc(C(=C(Cl)c2ccccc2)c2ccccc2)cc1 [Clomifene citrate] | 59.99 | 22.05 | 68.69 | 17.97 |  |  |
| COc1cc2ncnc(Nc3ccc(F)c(Cl)c3)c2cc1NC(=O)/C=C/CN1CCCCC1.O [Dacomitinib (monohydrate) (PF-00299804)] | -68.38 | 81.33 | -15.02 | 59.49 |  |  |
| CO[C@H]1C(=O)[C@]2(C)[C@@H](OC)C[C@H]3OC[C@@]3(OC(C)=O)[C@H]2[C@H](OC(=O)c2ccccc2)[C@]2(O)C[C@H](OC(=O)[C@H](O)[C@@H](NC(=O)OC(C)(C)C)c3ccccc3)C(C)=C1C2(C)C [Cabazitaxel] | -8.77 | 53.80 | -20.49 | 62.20 |  |  |

Source: PMC7588595, “Small-molecule active pharmaceutical ingredients of approved cancer therapeutics inhibit human aspartate/asparagine-β-hydroxylase” (Bioorganic & Medicinal Chemistry, 2020)
